This passage reports IC50 results from PMC9490316, “Covalent fragment inhibits intramembrane proteolysis” (Frontiers in Molecular Biosciences, 2022).

The test has as its target T1, transmembrane domain of amyloid precursor protein (APPTM) (Homo sapiens, UniProt P05067).
T1 construct: gene APP; APPTM, transmembrane domain of amyloid precursor protein (5,590 Da, 15N labeled, in DPC micelles)
The test is described as follows: 2D 1H-15N TROSY NMR and MALDI-TOF-MS (covalent adducts, up to six additions); the IC50 is from a gel-based assay of APPTM cleavage by PSH. It counts as biochemical.

Molecules are shown by their SMILES.

T1 sequence (P05067 686-726 limits assumed): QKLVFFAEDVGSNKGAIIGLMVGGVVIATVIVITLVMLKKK

For the compound `Oc1ccc(O)c2c1C1CCC2C1` [6H8], the IC50 – broadly, the point on the concentration scale where inhibition reaches its midpoint – was 2 to 4 µM.
